Holding throughout (test): inhibition of tumour cell growth, NCI panel, 48 h
In assay [1] the test system is RPMI-8226 leukemia.
The subject of assay [2] is SNB-75 CNS.
The test system of assay [3] is HT29 colon.
The subject of assay [4] is SR leukemia.
For assay [5], the system named is A549 NSCLC.
In assay [6] the test system is UO-31 renal.
Assay [7] relates to CCRF-CEM leukemia.
Assay [8] has as its system HS 578T breast.
The test system of assay [9] is HCC-2998 colon.
Assay [10] concerns SF-268 CNS.
Assay [11] relates to ACHN renal.
Assay [12] concerns CAKI-1 renal.
The test system of assay [13] is SK-OV-3 ovarian.
Assay [14] relates to UACC-62 melanoma.
Assay [15] deals with M14 melanoma.
Assay [16] deals with BT-549 breast.
Assay [17] deals with A498 renal.
Assay [18] deals with 786-0 renal.
For assay [19], the system named is OVCAR-3 ovarian.
Assay [20] concerns UACC-257 melanoma.
For assay [21], the system named is U251 CNS.
In assay [22] the test system is HOP-92 NSCLC.
Assay [23] has as its system HL-60(TB) leukemia.
The subject of assay [24] is IGROV1 ovarian.
Assay [25] deals with TK-10 renal.
Assay [26] has as its system MDA-MB-231 breast.
Assay [27] has as its system NCI-H23 lung.
Assay [28] concerns LOX IMVI melanoma.
For assay [29], the system named is HCT-15 colon.
Assay [30] deals with OVCAR-5 ovarian.
Assay [31] concerns SW-620 colon.
Assay [32] relates to SK-MEL-2 melanoma.
For assay [33], the system named is SNB-19 CNS.
For assay [34], the system named is HOP-62 NSCLC.
Assay [35] deals with MDA-MB-435.
For assay [36], the system named is MALME-3M melanoma.
In assay [37] the test system is NCI-H226 lung.
The subject of assay [38] is RXF 393 renal.
The test system of assay [39] is MOLT-4 leukemia.
Assay [40] deals with SK-MEL-5 melanoma.
The subject of assay [41] is SN12C renal.
In assay [42] the test system is MDA-MB-468 breast.
In assay [43] the test system is NCI-H522 lung.
In assay [44] the test system is EKVX NSCLC.
Assay [45] relates to SK-MEL-28 melanoma.
The subject of assay [46] is COLO 205 colon.
In assay [47] the test system is MCF7 breast.
In assay [48] the test system is PC-3 prostate.
Assay [49] has as its system OVCAR-8 ovarian.
The test system of assay [50] is NCI-H460 lung.
Assay [51] relates to KM12 colon.
For assay [52], the system named is HCT-116 colon.
In assay [53] the test system is SF-539 CNS.
The subject of assay [54] is T-47D breast.
Assay [55] deals with OVCAR-4 ovarian.
In assay [56] the test system is DU-145 prostate.
Assay [57] concerns SF-295 CNS.

“And” between values parts separate entries of the source, which are not always exact repeats. Equal values may be shown once.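 96-well plates; 48 h exposure; 5 concentrations. Endpoints by linear interpolation between flanking doses. Not reached: highest tested concentration assigned. Here, GI50 denotes the concentration required for 50% inhibition of growth. TGI denotes the concentration required for complete inhibition of growth.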 Some results are limits rather than exact numbers.

For the molecule `CN1CCc2c(sc3ncnc(N/N=C/c4ccc(Cl)cc4Cl)c23)C1`, the GI50 is 2.51 µM in assay [1]; 1.54 µM in [2]; 2.13 µM in assay [3]; 2.27 µM in assay [4]; 3.73 µM in [5]; 1.47 µM in assay [6]. The GI50 in [7] was 2.45 µM; in assay [8], 3.18 µM; in [9], 3.69 µM; in assay [10], 4.64 µM; in [11], 1.88 µM; in [12], 1.8 µM. Also, the GI50 in [13] was 3.04 µM; in assay [14], 1.7 µM; in assay [15] it was 1.71 µM; in assay [16], 3.97 µM; in [17] it was 3.22 µM; in assay [18], 1.77 µM. In addition, the GI50 was 1.34 µM in assay [19]; 2.86 µM in [20]; 1.92 µM in [21]; 1.95 µM in assay [22]; 2.12 µM in assay [23]; 6.89 µM in assay [24]. The GI50 in assay [25] is 2.53 µM; in assay [26] it was 1.93 µM; in [27] it was 2.81 µM; in [28], 1.49 µM; in [29], 2.95 µM; in assay [30] it was 2.84 µM. In addition, the GI50 is 1.91 µM in assay [31]; 3.59 µM in assay [32]; 4.01 µM in assay [33]; 3.34 µM in assay [34]; 2.11 µM in assay [35]; 1.9 µM in assay [36]. Besides, the GI50 is 2.11 µM in assay [37]; 2.1 µM in [38]; 2.9 µM in assay [39]; 1.66 µM in assay [40]; 2.43 µM in [41]; 1.52 µM in [42]. Further, the GI50 was 3.38 µM in [43]; 10.8 µM in assay [44]; 2.04 µM in assay [45]; 1.66 µM in assay [46]; 2.36 µM in [47]; 3.96 µM in assay [48]. Moreover, the GI50 in assay [49] was 2.38 µM; in assay [50], 3.2 µM; in [51], 4.3 µM; in [52], 3.04 µM; in [53], 1.81 µM; in [54], 2.1 µM. For the same molecule, the GI50 in [55] was 1.79 µM; in [56] it was 6.47 µM; in assay [57], 2.3 µM. For the same molecule, the TGI in [1] was 11.8 µM; in assay [2], 4.2 µM; in assay [3] it was 4.91 µM; in [4], 9.19 µM; in [5], 16.9 µM; in [6], 2.83 µM. Also, the TGI in [7] was 12.2 µM; in assay [8] it was 27.3 µM; in assay [9], 15.3 µM; in [10] it was > 100 µM; in [11], 3.97 µM; in assay [12] it was 3.87 µM. The TGI in assay [13] amounted to 12.5 µM; in assay [14], 3.67 µM; in assay [15] it was 3.45 µM; in assay [16], 16 µM; in assay [17], 12.3 µM; in assay [18], 3.26 µM. Moreover, the TGI in assay [19] is 2.88 µM; in assay [20], 9.96 µM; in [21], 4.31 µM; in assay [22], 5.96 µM; in assay [23] it was 6.11 µM; in assay [24], > 100 µM. Moreover, the TGI in [25] was determined as 6.36 µM; in [26], 4.71 µM; in assay [27], 10.7 µM; in assay [28], 2.93 µM; in [29], 13.7 µM; in assay [30], 11.2 µM. The TGI was 4.34 µM in assay [31]; 13.9 µM in assay [32]; > 100 µM in [33]; 16.9 µM in [34]; 5.44 µM in assay [35]; 3.94 µM in assay [36]. In addition, the TGI worked out at 8.21 µM in [37]; 4.95 µM in assay [38]; 18.4 µM in assay [39]; 3.72 µM in assay [40]; 6.7 µM in assay [41]; 3.32 µM in [42]. Further, the TGI in assay [43] is 13.3 µM; in assay [44], > 100 µM; in assay [45], 5.37 µM; in assay [46], 3.41 µM; in assay [47], 14.7 µM; in assay [48] it was > 100 µM. Further, the TGI in assay [49] was 7.62 µM; in assay [50], 13.3 µM; in [51], 25.7 µM; in assay [52], 11.4 µM; in [53], 3.28 µM; in [54], 6.59 µM. The TGI is 3.81 µM in [55], > 100 µM in assay [56] and 8.18 µM in assay [57].
Turning to `Oc1c(CN2CCCC2)cc(COCc2ccccc2)c2cccnc12`, in assay [42], the GI50 was 2.3 µM and the TGI was 6.14 µM.
In the case of `CCSC1=CC(=O)c2ccccc2C1=O`, in assay [42], the GI50 is 0.18 µM and the TGI is 0.417 µM.
In the same order, the values of `CC(=O)N1CC(F)(F)c2c(Sc3ncc(N4CCC5(CC4)COC[C@H]5N)nc3N)cccc21` are 14.8 µM and 50.5 µM.
As to `Cc1nc(NC(=O)N2CCC[C@H]2C(N)=O)sc1-c1ccnc(C(C)(C)C(F)(F)F)c1`, in assay [42], the GI50 is 0.309 µM and 0.596 µM; the TGI is 6.97 µM and > 10 µM.
Take `COc1ccc(NC(=O)c2cc(OC)c(OC)c(OC)c2)cc1O`: in assay [42], the GI50 is 0.861 µM and the TGI came to 15.8 µM.
In the same order, the values of `COc1ccc(/C=C2\N=C3SC=C(N)N3C2=O)cc1` are 0.291 µM and 1.66 µM.
In the same order, the values of `O=C(Nc1cc(Cl)cc(Cl)c1)Nc1ccc2oc(=O)ccc2c1` are 2.81 µM and 7.45 µM.
For `COc1ccc(-c2ccc(-c3ccc(C(=N)N)cn3)s2)cc1Cl` the same measures were 1.57 µM and 3.15 µM.
As to `Fc1ccc(-c2ncn(C3CCNCC3)c2-c2ccnc(Oc3cccc(F)c3)n2)cc1`, in assay [42], the GI50 is 2.61 µM and the TGI was determined as 6.82 µM.
For `COc1ccc2c3c(c(OCCCN(C)C)nc2c1)-c1ccc(Cl)cc1C3=O` the same measures were 4.7 µM and 19.5 µM.
On to `N#Cc1nc(-c2ccccc2)oc1S(=O)(=O)N1CCOCC1`, for which, in [42], the GI50 was 2.21 µM and the TGI came out at 6.21 µM.
In the same order, the values of `NC(CSC(c1ccccc1)(c1ccccc1)c1ccc2ccccc2c1)C(=O)O` (centres undefined) are 0.045 µM and 22.3 µM.
For `CC#CC(=O)N1CCC[C@H]1c1nc(-c2ccc(C(=O)Nc3ccccn3)cc2)c2c(N)nccn12` the same measures were 19 µM and > 76 µM.
In the same order, the values of `COc1ccccc1-n1c(SCc2cc(OC)c(OC)c(OC)c2)nc2ccc(Cl)cc2c1=O` are 0.895 µM and 8.99 µM.
For `O=C(/C=C/c1ccco1)Nc1ncc(Cc2ccc(F)cc2)s1`, in assay [42], the GI50 was 0.142 µM and the TGI was > 25.2 µM.
Regarding `COc1ccc(C(O)c2cc3c(N)c(C(=O)Nc4cccc(Br)c4)sc3nc2C)cc1` (centres undefined), the GI50 in assay [42] is 0.0969 µM.
As for `COc1ccc(/C=C\c2cc(OC)c(OC)c(OC)c2)c(NS(=O)(=O)c2ccc(C)cc2)c1O`, in [42], the GI50 was 0.0261 µM and the TGI came out at 0.711 µM.
In the same order, the values of `CCCC[C@@H](COC(=O)N(Cc1cccs1)Cc1cccs1)NC(=O)N[C@@H](CC(=O)OC)c1ccc2c(c1)OCO2` are > 100 µM and > 100 µM.

For the origin of these results see PubChem BioAssay (NCI).
